Measured values reported in the NIST ThermoML archive (doi:10.1021/je7005055).

Experiments:
[1] = 298.15 K; 101.33 kPa; Liquid
[2] = xn = mol fraction of the nth substance listed; conditions: 298.15 K, 101 kPa, Liquid

CCCCCCCCO [octan-1-ol]
Conditions	mass density [kg/m3]
[1]	821.65

CN1CCOCC1 [N-methylmorpholine] + CCCCCCCCO
[2]
Conditions	mass density [kg/m3]
x1 = 0.0461	823.88
x1 = 0.1101	827.55
x1 = 0.1862	832.09
x1 = 0.2381	835.33
x1 = 0.2848	838.58
x1 = 0.3484	843.06
x1 = 0.4029	846.99
x1 = 0.4899	853.86
x1 = 0.5121	855.92
x1 = 0.6012	863.81
x1 = 0.6547	869.5
x1 = 0.7213	875.97
x1 = 0.7831	883.26
x1 = 0.8353	889.72
x1 = 0.8958	897.82
x1 = 0.9541	905.92
x1 = 0.9792	909.72

CN1CCOCC1 [N-methylmorpholine] + CCCO
[2]
Conditions	mass density [kg/m3]
x1 = 0.0237	803.87
x1 = 0.1003	816.55
x1 = 0.1657	826.67
x1 = 0.2336	836.52
x1 = 0.2812	843.01
x1 = 0.3458	851.12
x1 = 0.3988	857.14
x1 = 0.4476	861.99
x1 = 0.5784	874.68
x1 = 0.6347	879.93
x1 = 0.7195	888.06
x1 = 0.7684	892.76
x1 = 0.8327	898.56
x1 = 0.8674	901.93
x1 = 0.9443	908.83
x1 = 0.9878	912.75

CCCO [propan-1-ol]
Conditions	mass density [kg/m3]
[1]	799.52

CCCCCCO [hexan-1-ol]
Conditions	mass density [kg/m3]
[1]	814.95

CN1CCOCC1 [N-methylmorpholine] + CCCCO
[2]
Conditions	mass density [kg/m3]
x1 = 0.0455	811.49
x1 = 0.1089	818.95
x1 = 0.1675	825.55
x1 = 0.2399	833.8
x1 = 0.2811	838.33
x1 = 0.3494	845.7
x1 = 0.3985	850.99
x1 = 0.4533	856.71
x1 = 0.5285	864.54
x1 = 0.6444	876.67
x1 = 0.7198	885.45
x1 = 0.7865	891.47
x1 = 0.8237	895.31
x1 = 0.8843	901.73
x1 = 0.9411	907.87
x1 = 0.9801	912

CCO [ethanol]
Conditions	mass density [kg/m3]
[1]	784.94

CCCCO [butan-1-ol]
Conditions	mass density [kg/m3]
[1]	805.92

CCCCCO [pentan-1-ol]
Conditions	mass density [kg/m3]
[1]	810.83

CN1CCOCC1 [N-methylmorpholine] + CCCCCCO
[2]
Conditions	mass density [kg/m3]
x1 = 0.0459	818.34
x1 = 0.1098	823.37
x1 = 0.1852	829.49
x1 = 0.2377	833.69
x1 = 0.2855	837.76
x1 = 0.3495	843.34
x1 = 0.4034	848.09
x1 = 0.4887	855.97
x1 = 0.5129	858.26
x1 = 0.5998	866.75
x1 = 0.6583	872.76
x1 = 0.7174	879.14
x1 = 0.7844	886.51
x1 = 0.8341	892.31
x1 = 0.8964	899.75
x1 = 0.9538	907.13
x1 = 0.9784	910.69

CN1CCOCC1 [N-methylmorpholine] + CCCCCO
[2]
Conditions	mass density [kg/m3]
x1 = 0.0487	813.72
x1 = 0.1129	820.02
x1 = 0.1766	826.08
x1 = 0.2412	832.41
x1 = 0.2801	836.23
x1 = 0.3998	847.87
x1 = 0.4612	854.03
x1 = 0.5826	866.38
x1 = 0.6444	872.93
x1 = 0.7267	881.91
x1 = 0.7801	887.89
x1 = 0.8226	892.69
x1 = 0.8811	899.57
x1 = 0.9428	907.1
x1 = 0.9854	912.11

CN1CCOCC1 [N-methylmorpholine] + CCO
[2]
Conditions	mass density [kg/m3]
x1 = 0.0511	797.55
x1 = 0.1166	812.41
x1 = 0.1795	825.38
x1 = 0.2438	837.23
x1 = 0.2795	843.43
x1 = 0.3532	854.69
x1 = 0.4021	861.24
x1 = 0.4573	867.56
x1 = 0.4982	871.73
x1 = 0.5342	875.35
x1 = 0.5832	879.41
x1 = 0.6432	884.36
x1 = 0.7234	890.96
x1 = 0.7786	895.53
x1 = 0.8216	899.13
x1 = 0.8794	904.05
x1 = 0.9432	909.42
x1 = 0.9832	912.63

CN1CCOCC1 [N-methylmorpholine]
Conditions	mass density [kg/m3]
[1]	914.06
